Measurements reported in US8703964B2, “Bendamustine cyclopolysaccharide compositions” (Supratek Pharma Inc., priority 2009, dated 2014).
pIC50: −log10 of the molar value. Like-named read-outs stand apart in the source and are kept apart here.

What was measured:
[1] = test system: Lewis Lung carcinoma 3LL cells; assay: Murine experimental lung metastasis model (Example 26); format: in vivo, C57Bl/6 mice; settings: 50 mg/kg
Description: Female Charles Rivers C57Bl/6 mice, aged 5 to 6 weeks, were purchased from Charles River Canada Inc. The animals were kept 5 per cage with an air filter cover under light (12 light/dark cycle, light on at 6H00) and temperature (22°±1° C.)-controlled environment. All manipulations of animals were performed under a sterilized laminar hood. The animals had ad libitum access to Purina mouse chow (Pro Lab PMH 4018, Trademark of Agway, Syracuse, N.Y.) and water. These animal studies were conducted according to the “Guidelines for Care and Use of Experimental Animals”. Tumor Cell Culture:
Lewis Lung carcinoma 3LL cells were cultured in the appropriated culture medium. The cells were harvested in their logarithmic growth phase for the preparation of tumor implantation.
Lewis Lung carcinoma 3LL cells (2.0 to 5.0×10^5 cells in 200 ul PBS) were implanted intravenously by tail vein to establish experimental lung metastasis tumor models.
The treatments were performed on day after tumor implantation. The animals were dosed with the following dosing solutions.
non-formulated bendamustine (BM), (50 mg/kg)
Bendamustine (50 mg/kg) in 20% SBECD, 1% LMWP
Metastasis formation was evaluated by counting the numbers of metastasis spots on the lung surface. Routine metastasis examination were done for all organs at the end of the study.

[2] = Pharmacokinetics of bendamustine dosed to rats, composition with SBECD and PI2080 (Example 12); format: in vivo, Female Sprague-Dawley rats; settings: i.v. 10 mg/kg
Description: Control: 2.5 mg/mL bendamustine hydrochloride, 4.25 mg/mL of mannitol in 0.9% NaCl; dose of 10 mg/kg
Inventive Composition: 2.5 mg/mL bendamustine hydrochloride, 40% w/w sodium sulfobutyl ether β-cyclodextrin, 1% PI2080, 4.3 mg/g mannitol in water (prepared according to the procedure set forth in Example 9); dose of 10 mg/kg.
Female Sprague-Dawley rats (250-350 g). The animals were kept three per cage with an air filter cover under light (12 h light/dark cycle, light on at 06 h00) and controlled temperature 22° C.+/−1° C. All manipulations with the animals were performed under a sterilized laminar hood. The animals had ad libitum access to Purina mouse chow and water. The animals were fasted overnight and anesthetized, before dosing. Dosing and Sampling: Inventive bendamustine composition and control were administered intravenously to rats in tail vein. Blood samples were collected after time intervals of 5, 15, 30, 45 min, 1, 1.5, 2 and 3 hrs post-injection, The rats were anesthetised by general inhalation of isoflurane. The blood samples were collected from the jugular vein with heparinized tube and kept on ice. The blood was immediately centrifuged, and plasma was separated. The plasma samples were immediately extracted. Sample Extraction and Analysis: The plasma samples 0.100 mL were transferred to plastic tubes. The samples were extracted with 0.400 mL of 100 mM HCl in acetonitrile while being shaken vigorously for 30 seconds. The samples were centrifuged at 10000 RPM for 5 minutes. The supernatant was separated. The samples were frozen in dry ice and kept at −80° C. until HPLC analysis. The aliquots of 20 microliters were injected into HPLC for analysis. The HPLC Conditions: C18 reversed phase column 50×4.6 mm, Symmetry/Shield 3.5 micrometer Column temperature 30° C. Flow rate 1.5 mL/min Injection volume 20 microliters Fluorescence detection at wavelengths: excitation 327 nm, emission 420 nm Mobile phase: Buffer A: 5% acetonitrile 0.1% TFA Buffer B: 90% acetonitrile 0.1% TFA Run time: 10 min The improved pharmacokinetic profiles of Bendamustine for tested inventive composition versus the control is shown in Table 2 below.

RPMI8226 cells = assay: Cytotoxicity of bendamustine compositions pre-incubated with media, WST-1 (Example 23); format: cell-based; settings: for Cell growth: RPMI8226, 72 h; for pIC50: Homo sapiens, RPMI-8226, read-out: IC50 of bendamustine, RPMI8226
Description: BM and SBECD/LMWP formulation (40 mg/ml BM in 20% SBECD, 1% LMWP) were incubated in DMEM medium containing 10% FBS for 0, 1, or 4 h and then were added in varying concentrations to RPMI8226 cells. During BM treatment, concentrations of SBECD and LMWP were kept constant in culture medium at […], respectively. Cells were then grown for 72 h. The drug cytotoxicity was evaluated using WST-1 procedure.

Cn1c(CCCC(=O)O)nc2cc(N(CCCl)CCCl)ccc21 [BM, 4-[5-[bis(2-chloroethyl)amino]-1-methylbenzimidazol-2-yl]butanoic acid]
Lung metastasis number ([1]; 3LL i.v. implanted, C57Bl/6 mice): 56.1 ± 9.5
Inhibition on metastasis formation vs control ([1]; 3LL lung metastasis, mice): 14.4%
Inhibition on metastasis formation vs not formulated BM ([1]; 3LL lung metastasis, mice): 0%
concentration at 0.08 h ([2]; female, Sprague-Dawley, rat, plasma, iv, 0.08 h post injection, read-out: Concentration of bendamustine in rat plasma, Mean (SEM)): 6040 ng/mL
concentration at 0.25 h ([2]; female, Sprague-Dawley, rat, plasma, iv, 0.25 h post injection, read-out: Concentration of bendamustine in rat plasma, Mean (SEM)): 2430 ng/mL
concentration at 0.5 h ([2]; female, Sprague-Dawley, rat, plasma, iv, 0.5 h post injection, read-out: Concentration of bendamustine in rat plasma, Mean (SEM)): 520 ng/mL
concentration at 0.75 h ([2]; female, Sprague-Dawley, rat, plasma, iv, 0.75 h post injection, read-out: Concentration of bendamustine in rat plasma, Mean (SEM)): 145 ng/mL
concentration at 1.5 h ([2]; female, Sprague-Dawley, rat, plasma, iv, 1.5 h post injection, read-out: Concentration of bendamustine in rat plasma, Mean (SEM)): 8 ng/mL
concentration at 2 h ([2]; female, Sprague-Dawley, rat, plasma, iv, 2 h post injection, read-out: Concentration of bendamustine in rat plasma, Mean (SEM)): 2 ng/mL
Concentration of bendamustine in rat plasma, Mean (SEM) ([2]; 1 h post injection): 48 (11) ng/mL
Concentration of bendamustine in rat plasma, Mean (SEM) ([2]; 3 h post injection): 0 (1) ng/mL
Cell growth (RPMI8226 cells; Bendamustine 1 uM, pre-incubated in medium 0 h): 100%
Cell growth (RPMI8226 cells; Bendamustine 1 uM, pre-incubated in medium 1 h): 100%
Cell growth (RPMI8226 cells; Bendamustine 1 uM, pre-incubated in medium 4 h): 100%
Cell growth (RPMI8226 cells; Bendamustine 15 uM, pre-incubated in medium 0 h): 83%
Cell growth (RPMI8226 cells; Bendamustine 15 uM, pre-incubated in medium 1 h): 100%
Cell growth (RPMI8226 cells; Bendamustine 15 uM, pre-incubated in medium 4 h): 100%
Cell growth (RPMI8226 cells; Bendamustine 31 uM, pre-incubated in medium 0 h): 70%
Cell growth (RPMI8226 cells; Bendamustine 31 uM, pre-incubated in medium 1 h): 100%
Cell growth (RPMI8226 cells; Bendamustine 31 uM, pre-incubated in medium 4 h): 100%
Cell growth (RPMI8226 cells; Bendamustine 62 uM, pre-incubated in medium 0 h): 46%
Cell growth (RPMI8226 cells; Bendamustine 62 uM, pre-incubated in medium 1 h): 106%
Cell growth (RPMI8226 cells; Bendamustine 62 uM, pre-incubated in medium 4 h): 104%
Cell growth (RPMI8226 cells; Bendamustine 125 uM, pre-incubated in medium 0 h): 11%
Cell growth (RPMI8226 cells; Bendamustine 125 uM, pre-incubated in medium 1 h): 20%
Cell growth (RPMI8226 cells; Bendamustine 125 uM, pre-incubated in medium 4 h): 105%
Cell growth (RPMI8226 cells; Bendamustine 250 uM, pre-incubated in medium 0 h): −23%
Cell growth (RPMI8226 cells; Bendamustine 250 uM, pre-incubated in medium 1 h): −45%
Cell growth (RPMI8226 cells; Bendamustine 250 uM, pre-incubated in medium 4 h): 75%
Cell growth (RPMI8226 cells; Bendamustine 500 uM, pre-incubated in medium 0 h): −87%
Cell growth (RPMI8226 cells; Bendamustine 500 uM, pre-incubated in medium 1 h): −85%
Cell growth (RPMI8226 cells; Bendamustine 500 uM, pre-incubated in medium 4 h): 8%
Cell growth (RPMI8226 cells; Bendamustine 1000 uM, pre-incubated in medium 0 h): −98%
Cell growth (RPMI8226 cells; Bendamustine 1000 uM, pre-incubated in medium 1 h): −102%
Cell growth (RPMI8226 cells; Bendamustine 1000 uM, pre-incubated in medium 4 h): −99%
pIC50 (RPMI8226 cells; time of pre-incubation 0 h): 4.21
pIC50 (RPMI8226 cells; time of pre-incubation 1 h): 3.97
pIC50 (RPMI8226 cells; time of pre-incubation 4 h): 3.41
LC50 (RPMI8226 cells; RPMI8226, change of LC50 (50% death of cells) per hour of pre-incubation in medium): 107 ± 11 µM/h
TGI (RPMI8226 cells; RPMI8226, change of TGI (total growth inhibition) per hour of pre-incubation in medium): 98 ± 18 µM/h
